The test system of the assay is C57BL/6J mice. In words: Biochemical analysis of blood (plasma). The settings on record: HFD mice. Type of assay: in vivo. The protocol: When brought in, the animal was inspected and weighed. […] Xenical was used as a positive control. […] Blood glucose, AST, ALT, and BUN were measured using a chemical analyzer (Fuji DRI-CHEM 3500i, Fuji Photo Film, Ltd., Tokyo, Japan), total cholesterol and high density lipoprotein (HDL)-cholesterol (hereinafter referred to as HDL-C) were measured using a LabAssay™ Cholesterol kit (Wako, Osaka, Japan), and a low-density lipoprotein (LDL)-cholesterol (hereinafter referred to as LDL-C) was calculated using the following Equation 2. In addition, TG was analyzed using TG assay kits (Abcam, Cambridge, MA), respectively. LDL-C=Total cholesterol−{(HDL-C)+(TG/5)} [EQUATION 2]

SMILES strings stand for the structures.

In the case of `CCCCCCCCCCC[C@@H](C[C@@H]1OC(=O)[C@H]1CCCCCC)OC(=O)[C@H](CC(C)C)NC=O` [Xen], the “blood TG compared to the high-fat diet group” value (Xenical 50 mg/kg/day, 13 weeks, p<0.05) is “significantly reduced”. For the same compound, the LDL-C (plasma, 13 weeks oral, calculated by Equation 2, mean ± SD) is listed as 31.55 ± 17.44 mg/dL.

These data come from patent US20240173363A1, “MICROBIOME COMPOSITION OF HALOPHILIC BACILLUS VELEZENSIS KMU01 STRAIN FERMENTED CULTURE SUPERNATANT WITH ANTI-OBESITY EFFECT” (KOOKMINBIO, CORP., priority 2022, published 2024).
